From US20050112573A1, “Method of detecting toxic substance” (priority 2001, published 2005)

System: yeast genes (level of expressed mRNA)
Assay: DNA chip analysis of expressed mRNA of yeast genes after 2 h culture with a toxic chemical substance
Type: cell-based, Saccharomyces cerevisiae S288C
Procedure: Yeast (Saccharomyces cerevtisiae S288C (α SUC2mal mel gap2 CUP1)) were cultured at 25° C. on YPD medium (yeast extract 1%, polypepton 2%, glucose 2%). One of toxic chemical substances was added to the cell at logarithmic growth phase, and the cell was further cultured for two hours. Cell was cultured without any chemical substance in the same condition, and was used as control. Concentrations of the chemical substances were defined to inhibit the growth of the yeast but not lead to death.
After the completion of cultivation, the culture was centrifuged to collect the cells. To the cells, sodium acetate buffer (50 mM sodium acetate, 10 mM EDTA, 1% SDS) was added, and the mixture was shaken at 65° C. for five minutes, followed by returning to room temperature, and obtaining the supernatant, which procedure was repeated two times. To the supernatant, ½ amount of a solution of phenol/chloroform was added, and the mixture was centrifuged to give a supernatant, which was added with an equal amount of chloroform, and the mixture was centrifuged to give a supernatant. To the supernatant, an equal amount of isopropanol containing 0.3 M sodium acetate was added, and the mixture was allowed to stand at room temperature for 30 minutes, after which the mixture was centrifuged to give a sediment of the whole RNAs. Seventy % ethanol was added to the sediment, and the mixture was again centrifuged to give a sediment, which was then dried and dissolved in water. mRNA was isolated from the whole RNAs as followings. In view of the fact that a poly A chain is attached to the 3′ terminus of mRNA, a polynucleotide having a poly T structure which was immobilized on the surface of latex beads was used to trap the mRNA, and then the mRNA was washed and eluted with spine column (Oligotex-dT30<Super>mRNA Purification Kit, Takara). Reverse transcription of the mRNA was conducted with a reverse transcriptase (Super Script II Reverse Transcriptase; catalogue No. 18064-014, GibcoBRL) using fluorescence-labeled nucleotides to give cDNAs that were introduced with Cy3-dUTP or Cy5-dUTP during the reverse transcription.
The labeled cDNAs were dissolved in TE buffer (10 mM Tris-HCl/1 mM EDTA, pH8.0), and the solution was dropped on the DNA chip containing the whole genes of yeast (DNA Chip Research Inc. Japan) so that the cDNAs were hybridized on the DNA chip at 65° C. for over 12 hours. The fluoresces intensity of the DNA chip was read with a scanner, and the ratio relative to the fluorescence intensity resulting from the absence of chemical substance was estimated as the following, which is shown in Tables 1 to 9: [formula]
In the Tables, “Intensity” indicated in the rightmost column is a value of the level of expressed mRNA of each gene in control cells as divided by the average level of the expressions of the whole genes.

CCCCCCCCCCCCOS(=O)(=O)[O-].[Na+] [(18), sodium lauryl sulfate]
The level of expressed mRNA in the presence of chemical substance/absence: YML041C (gene YML041C): 1.3 | The level of expressed mRNA in the presence of chemical substance/absence: YML079W (gene YML079W): 1.4 | level of expressed mRNA in the presence of chemical substance/in its absence (gene YML110C): 1.6 | The level of expressed mRNA in the presence of chemical substance/absence: YML118W (gene YML118W): 1.5 | The level of expressed mRNA in the presence of chemical substance/absence: YMR068W (gene YMR068W): 1.1 | The level of expressed mRNA in the presence of chemical substance/absence: YMR071C (gene YMR071C): 1.9 | level of expressed mRNA in the presence of chemical substance/in its absence (gene YMR105C): 2.6 | The level of expressed mRNA in the presence of chemical substance/absence: YMR114C (gene YMR114C): 1.3 | The level of expressed mRNA in the presence of chemical substance/absence: YMR115W (gene YMR115W): 1.2 | The level of expressed mRNA in the presence of chemical substance/absence: YMR160W (gene YMR160W): 1.3 | level of expressed mRNA in the presence of chemical substance/in its absence (gene YMR189W): 0.8 | The level of expressed mRNA in the presence of chemical substance/absence: YMR258C (gene YMR258C): 1.3 | level of expressed mRNA in the presence of chemical substance/in its absence (gene YMR271C): 2.2 | level of expressed mRNA in the presence of chemical substance/in its absence (gene YMR272C): 1.4 | level of expressed mRNA in the presence of chemical substance/in its absence (gene YMR296C): 0.7 | level of expressed mRNA in the presence of chemical substance/in its absence (gene YNL012W): 1.5 | The level of expressed mRNA in the presence of chemical substance/absence: YNL026W (gene YNL026W): 1.4 | level of expressed mRNA in the presence of chemical substance/in its absence (gene YNL037C): 1.3 | level of expressed mRNA in the presence of chemical substance/in its absence (gene YNL045W): 1.1 | The level of expressed mRNA in the presence of chemical substance/absence: YNL058C (gene YNL058C): 1.0 | The level of expressed mRNA in the presence of chemical substance/absence: YNL063W (gene YNL063W): 1.0 | level of expressed mRNA in the presence of chemical substance/in its absence (gene YNL104C): 0.9 | level of expressed mRNA in the presence of chemical substance/in its absence (gene YNL106C): 0.9 | level of expressed mRNA in the presence of chemical substance/in its absence (gene YNL130C): 1.2 | level of expressed mRNA in the presence of chemical substance/in its absence (gene YNL169C): 1.3 | The level of expressed mRNA in the presence of chemical substance/absence: YNL176C (gene YNL176C): 0.8 | The level of expressed mRNA in the presence of chemical substance/absence: YNL181W (gene YNL181W): 1.3 | The level of expressed mRNA in the presence of chemical substance/absence: YNL191W (gene YNL191W): 0.6 | The level of expressed mRNA in the presence of chemical substance/absence: YNL194C (gene YNL194C): 2.4 | The level of expressed mRNA in the presence of chemical substance/absence: YNL200C (gene YNL200C): 0.9 | The level of expressed mRNA in the presence of chemical substance/absence: YNL212W (gene YNL212W): 1.2 | level of expressed mRNA in the presence of chemical substance/in its absence (gene YNL231C): 4.0 | The level of expressed mRNA in the presence of chemical substance/absence: YNL253W (gene YNL253W): 1.2 | The level of expressed mRNA in the presence of chemical substance/absence: YNL265C (gene YNL265C): 1.8 | The level of expressed mRNA in the presence of chemical substance/absence: YNL276C (gene YNL276C): 0.8 | level of expressed mRNA in the presence of chemical substance/in its absence (gene YNL322C): 1.0 | level of expressed mRNA in the presence of chemical substance/in its absence (gene YNR002C): 2.1 | level of expressed mRNA in the presence of chemical substance/in its absence (gene YNR019W): 2.0 | level of expressed mRNA in the presence of chemical substance/in its absence (gene YNR033W): 1.1 | The level of expressed mRNA in the presence of chemical substance/absence: YNR051C (gene YNR051C): 0.8 | level of expressed mRNA in the presence of chemical substance/in its absence (gene YNR059W): 2.2 | The level of expressed mRNA in the presence of chemical substance/absence: YOL026C (gene YOL026C): 1.4 | The level of expressed mRNA in the presence of chemical substance/absence: YOL030W (gene YOL030W): 1.0 | level of expressed mRNA in the presence of chemical substance/in its absence (gene YOL058W): 0.8 | level of expressed mRNA in the presence of chemical substance/in its absence (gene YOL126C): 2.4 | level of expressed mRNA in the presence of chemical substance/in its absence (gene YOL143C): 1.4 | level of expressed mRNA in the presence of chemical substance/in its absence (gene YOL153C): 1.7 | level of expressed mRNA in the presence of chemical substance/in its absence (gene YOL157C): 1.3 | The level of expressed mRNA in the presence of chemical substance/absence: YOR022C (gene YOR022C): 1.1 | The level of expressed mRNA in the presence of chemical substance/absence: YOR087W (gene YOR087W): 1.1 | The level of expressed mRNA in the presence of chemical substance/absence: YOR088W (gene YOR088W): 0.7 | level of expressed mRNA in the presence of chemical substance/in its absence (gene YOR099W): 2.3 | level of expressed mRNA in the presence of chemical substance/in its absence (gene YOR130C): 1.1 | level of expressed mRNA in the presence of chemical substance/in its absence (gene YOR136W): 1.3 | The level of expressed mRNA in the presence of chemical substance/absence: YOR138C (gene YOR138C): 1.1 | The level of expressed mRNA in the presence of chemical substance/absence: YOR155C (gene YOR155C): 0.9 | The level of expressed mRNA in the presence of chemical substance/absence: YOR253W (gene YOR253W): 0.9
